Reference: ChEMBL document CHEMBL1201862, “PubChem BioAssay data set” (2004)
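Method: 48-hour compound exposure of cells in 96-well plates, five concentrations, linear interpolation of endpoints. GI50 = concentration required for 50% inhibition of growth.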 Activity calls are given as the source filed them. No stated cut-off is given here; in the data, active = GI50 up to about 1.1 µM and inactive = higher.

Legend:
Assay in all cases: inhibition of tumour cell growth, NCI panel, 48 h
[1] = tested on: 786-0
[2] = tested on: A498
[3] = tested on: A549
[4] = tested on: ACHN
[5] = tested on: CCRF-CEM
[6] = tested on: COLO 205
[7] = tested on: DU-145
[8] = tested on: EKVX
[9] = tested on: HCT-116
[10] = tested on: HCT-15
[11] = tested on: HOP-62
[12] = tested on: HOP-92
[13] = tested on: HT-29
[14] = tested on: Hs-578T
[15] = tested on: IGROV-1
[16] = tested on: K562
[17] = tested on: KM12
[18] = tested on: LOX IMVI
[19] = tested on: M14
[20] = tested on: MCF7
[21] = tested on: MDA-MB-231
[22] = tested on: MDA-MB-435
[23] = tested on: MDA-N
[24] = tested on: MOLT-4
[25] = tested on: Malme-3M
[26] = tested on: NCI-H226
[27] = tested on: NCI-H23
[28] = tested on: NCI-H522
[29] = tested on: NCI/ADR-RES
[30] = tested on: OVCAR-3
[31] = tested on: OVCAR-4
[32] = tested on: OVCAR-5
[33] = tested on: OVCAR-8
[34] = tested on: PC-3
[35] = tested on: RPMI-8226
[36] = tested on: SF-268
[37] = tested on: SF-295
[38] = tested on: SK-MEL-28
[39] = tested on: SK-MEL-2
[40] = tested on: SK-MEL-5
[41] = tested on: SK-OV-3
[42] = tested on: SN12C
[43] = tested on: SNB-19
[44] = tested on: SNB-75
[45] = tested on: SR
[46] = tested on: SW-620
[47] = tested on: TK-10
[48] = tested on: U-251
[49] = tested on: UACC-62
[50] = tested on: UO-31
[51] = tested on: CAKI-1
[52] = tested on: HCC 2998
[53] = tested on: HL-60
[54] = tested on: NCI-H460
[55] = tested on: RXF 393
[56] = tested on: SF-539
[57] = tested on: T47D
[58] = tested on: UACC-257

C/C1=C\[C@H](C)C[C@H](C)OC(=O)C[C@H](c2ccc(O)cc2)NC(=O)[C@H](Cc2ccc(O)c(I)c2)N(C)C(=O)[C@H](C)NC(=O)[C@@H](C)C1
GI50 [1]: 0.0148 µM (active) | GI50 [2]: 0.016 µM (active) | GI50 [3]: 0.0102 µM (active) | GI50 [4]: 0.00832 µM (active) | GI50 [5]: 0.00497 µM (active) | GI50 [6]: 0.0161 µM (active) | GI50 [7]: 0.0183 µM (active) | GI50 [8]: 0.0596 µM (active) | GI50 [9]: 0.016 µM (active) | GI50 [10]: 0.234 µM | GI50 [11]: 0.0252 µM (active) | GI50 [12]: 0.0365 µM (active) | GI50 [13]: 0.00274 µM (active) | GI50 [14]: 0.0564 µM (active) | GI50 [15]: 0.0121 µM (active) | GI50 [16]: 1.31 µM (inactive) | GI50 [17]: 0.208 µM (active) | GI50 [18]: 0.00411 µM (active) | GI50 [19]: 0.0405 µM (active) | GI50 [20]: 0.019 µM (active) | GI50 [21]: 0.0333 µM (active) | GI50 [22]: 0.0442 µM (active) | GI50 [23]: 0.0412 µM (active) | GI50 [24]: 0.258 µM (active) | GI50 [25]: 0.0118 µM (active) | GI50 [26]: 0.0153 µM (active) | GI50 [27]: 2.79 µM (inactive) | GI50 [28]: 0.0818 µM (active) | GI50 [29]: 1.11 µM (active) | GI50 [30]: 0.0203 µM (active) | GI50 [31]: 0.00653 µM (active) | GI50 [32]: 0.131 µM (active) | GI50 [33]: 0.0137 µM (active) | GI50 [34]: 0.0608 µM (active) | GI50 [35]: 0.0108 µM (active) | GI50 [36]: 0.011 µM (active) | GI50 [37]: 0.0778 µM (active) | GI50 [38]: 0.0112 µM (active) | GI50 [39]: 0.0646 µM (active) | GI50 [40]: 0.0169 µM (active) | GI50 [41]: 0.054 µM (active) | GI50 [42]: 0.239 µM (active) | GI50 [43]: 0.0143 µM (active) | GI50 [44]: 0.0354 µM (active) | GI50 [45]: 0.0968 µM (active) | GI50 [46]: 0.00863 µM (active) | GI50 [47]: 0.0586 µM (active) | GI50 [48]: 0.00944 µM (active) | GI50 [49]: 0.0428 µM (active) | GI50 [50]: 0.0535 µM (active)

C[C@@H]1CC[C@]2(C)C3(C)CC[C@]2(OC3=O)[C@@]12CC(c1ccoc1)OC2=O (stereo partly drawn)
GI50 [1]: 20.5 µM (inactive) | GI50 [2]: > 100 µM (inactive) | GI50 [3]: > 100 µM (inactive) | GI50 [4]: 22.4 µM (inactive) | GI50 [51]: 34.3 µM (inactive) | GI50 [5]: 22.8 µM (inactive) | GI50 [6]: 19.3 µM (inactive) | GI50 [7]: > 100 µM (inactive) | GI50 [8]: 72.3 µM (inactive) | GI50 [52]: > 100 µM (inactive) | GI50 [9]: 17.5 µM (inactive) | GI50 [10]: 31.4 µM | GI50 [53]: 21.6 µM (inactive) | GI50 [11]: > 100 µM (inactive) | GI50 [12]: 32.8 µM (inactive) | GI50 [13]: 54.7 µM (inactive) | GI50 [14]: 54.2 µM (inactive) | GI50 [15]: 26.9 µM (inactive) | GI50 [16]: 34 µM (inactive) | GI50 [17]: > 100 µM (inactive) | GI50 [18]: 20.3 µM (inactive) | GI50 [19]: 25.1 µM (inactive) | GI50 [20]: 61 µM (inactive) | GI50 [22]: 25.3 µM (inactive) | GI50 [23]: 34.4 µM (inactive) | GI50 [24]: 31 µM (inactive) | GI50 [25]: 21.1 µM (inactive) | GI50 [26]: > 100 µM (inactive) | GI50 [27]: 29.6 µM (inactive) | GI50 [54]: 86.5 µM (inactive) | GI50 [28]: 2.15 µM (inactive) | GI50 [29]: 49.3 µM (inactive) | GI50 [30]: 26.2 µM (inactive) | GI50 [31]: 20.7 µM (inactive) | GI50 [32]: 30.8 µM (inactive) | GI50 [34]: 40.6 µM (inactive) | GI50 [35]: 38.2 µM (inactive) | GI50 [55]: 24.8 µM (inactive) | GI50 [36]: 37.2 µM (inactive) | GI50 [37]: > 100 µM (inactive) | GI50 [56]: 30.5 µM (inactive) | GI50 [38]: 26.7 µM (inactive) | GI50 [39]: 58.6 µM (inactive) | GI50 [40]: 62.5 µM (inactive) | GI50 [41]: > 100 µM (inactive) | GI50 [42]: 33.8 µM (inactive) | GI50 [43]: > 100 µM (inactive) | GI50 [45]: 34.8 µM (inactive) | GI50 [46]: 26.9 µM (inactive) | GI50 [57]: > 100 µM (inactive) | GI50 [47]: 39 µM (inactive) | GI50 [48]: 44.5 µM (inactive) | GI50 [49]: 61.4 µM (inactive) | GI50 [50]: 28 µM (inactive)

O=C1c2c(O)ccc(O)c2C(=O)c2c(NCCNCCO)ccc(NCCNCCO)c21 [MITOXANTRONE]
GI50 [2]: 0.112 µM (active) | GI50 [3]: < 0.01 µM (active) | GI50 [9]: 0.0373 µM (active) | GI50 [12]: 0.0355 µM (active) | GI50 [16]: 0.0741 µM (active) | GI50 [22]: 0.259 µM (active) | GI50 [56]: < 0.01 µM (active) | GI50 [40]: 0.0719 µM (active) | GI50 [58]: 0.995 µM (active)
